Experimental data reported in paper PMC9279635 (Acta Pharmaceutica Sinica. B, 2021).
Where two headings read alike, the source gives them in different places.

Experiments:
Assay type in all cases: biochemical
DDR2 = molecular target: T1, DDR2 (Homo sapiens, UniProt Q16832); assay: ELISA kinase assay, DDR2
T1 sequence (Q16832 22-855): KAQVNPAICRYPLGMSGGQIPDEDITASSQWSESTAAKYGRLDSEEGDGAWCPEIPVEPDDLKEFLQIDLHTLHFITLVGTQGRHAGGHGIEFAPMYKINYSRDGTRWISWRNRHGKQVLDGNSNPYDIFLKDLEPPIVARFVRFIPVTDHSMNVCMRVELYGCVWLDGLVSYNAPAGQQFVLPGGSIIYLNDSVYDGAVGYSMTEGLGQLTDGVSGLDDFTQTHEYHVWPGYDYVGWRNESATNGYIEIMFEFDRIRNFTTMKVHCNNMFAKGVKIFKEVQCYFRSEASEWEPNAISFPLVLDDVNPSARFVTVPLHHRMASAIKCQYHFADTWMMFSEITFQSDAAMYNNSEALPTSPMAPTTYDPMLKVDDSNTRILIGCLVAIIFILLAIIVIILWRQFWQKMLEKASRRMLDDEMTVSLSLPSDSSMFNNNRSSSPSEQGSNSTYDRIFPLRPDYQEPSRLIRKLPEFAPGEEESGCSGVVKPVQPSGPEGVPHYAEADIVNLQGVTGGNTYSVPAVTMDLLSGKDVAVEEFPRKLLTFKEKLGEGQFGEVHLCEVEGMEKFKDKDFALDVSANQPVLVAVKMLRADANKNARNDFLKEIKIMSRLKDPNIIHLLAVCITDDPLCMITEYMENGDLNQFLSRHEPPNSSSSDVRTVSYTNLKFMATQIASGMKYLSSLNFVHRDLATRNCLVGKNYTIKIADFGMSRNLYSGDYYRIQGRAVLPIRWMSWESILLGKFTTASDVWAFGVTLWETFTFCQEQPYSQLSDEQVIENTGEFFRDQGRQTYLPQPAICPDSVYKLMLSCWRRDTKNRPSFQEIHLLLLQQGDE

RET = RET (Homo sapiens, UniProt P07949); assay: ELISA kinase assay, RET; conditions: for inhibition at 0.1 µM: read-out: RET inhibition @100 nmol/L; for inhibition at 0.01 µM: read-out: RET inhibition @10 nmol/L
RET, sequence (P07949 29-1114): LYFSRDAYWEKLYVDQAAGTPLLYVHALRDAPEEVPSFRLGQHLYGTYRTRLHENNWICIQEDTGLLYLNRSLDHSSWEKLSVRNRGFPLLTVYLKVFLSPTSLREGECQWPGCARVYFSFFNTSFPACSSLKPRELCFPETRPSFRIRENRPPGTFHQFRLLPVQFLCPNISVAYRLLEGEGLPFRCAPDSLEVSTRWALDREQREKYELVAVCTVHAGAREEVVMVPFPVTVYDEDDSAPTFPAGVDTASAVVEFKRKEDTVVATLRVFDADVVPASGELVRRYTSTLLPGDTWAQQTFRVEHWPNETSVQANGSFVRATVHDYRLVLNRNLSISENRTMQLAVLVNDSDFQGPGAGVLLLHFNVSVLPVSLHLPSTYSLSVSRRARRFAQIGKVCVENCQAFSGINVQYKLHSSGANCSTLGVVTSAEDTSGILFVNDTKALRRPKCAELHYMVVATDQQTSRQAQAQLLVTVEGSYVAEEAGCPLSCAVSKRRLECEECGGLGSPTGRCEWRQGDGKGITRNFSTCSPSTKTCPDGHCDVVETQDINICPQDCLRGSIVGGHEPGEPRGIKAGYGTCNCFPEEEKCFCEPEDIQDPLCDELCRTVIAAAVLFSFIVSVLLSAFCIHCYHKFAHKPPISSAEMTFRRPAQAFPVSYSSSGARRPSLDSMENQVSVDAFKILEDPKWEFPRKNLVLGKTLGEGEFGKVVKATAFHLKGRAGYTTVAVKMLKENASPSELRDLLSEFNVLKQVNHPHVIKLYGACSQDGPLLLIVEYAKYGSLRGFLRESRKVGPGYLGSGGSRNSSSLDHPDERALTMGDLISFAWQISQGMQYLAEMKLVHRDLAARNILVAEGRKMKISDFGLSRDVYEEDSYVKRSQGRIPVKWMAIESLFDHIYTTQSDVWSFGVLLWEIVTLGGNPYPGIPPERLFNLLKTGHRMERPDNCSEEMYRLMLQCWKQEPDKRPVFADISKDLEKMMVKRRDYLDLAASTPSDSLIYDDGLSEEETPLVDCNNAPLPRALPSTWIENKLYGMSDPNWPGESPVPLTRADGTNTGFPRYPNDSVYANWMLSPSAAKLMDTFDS

Flt-3 = molecular target: T2, Flt-3 (Homo sapiens, UniProt P36888); assay: ELISA kinase assay, Flt-3; conditions: for inhibition at 0.1 µM: read-out: Flt-3 inhibition@100 nmol/L; for inhibition at 0.01 µM: read-out: Flt-3 inhibition @10 nmol/L
T2 sequence (P36888 27-993): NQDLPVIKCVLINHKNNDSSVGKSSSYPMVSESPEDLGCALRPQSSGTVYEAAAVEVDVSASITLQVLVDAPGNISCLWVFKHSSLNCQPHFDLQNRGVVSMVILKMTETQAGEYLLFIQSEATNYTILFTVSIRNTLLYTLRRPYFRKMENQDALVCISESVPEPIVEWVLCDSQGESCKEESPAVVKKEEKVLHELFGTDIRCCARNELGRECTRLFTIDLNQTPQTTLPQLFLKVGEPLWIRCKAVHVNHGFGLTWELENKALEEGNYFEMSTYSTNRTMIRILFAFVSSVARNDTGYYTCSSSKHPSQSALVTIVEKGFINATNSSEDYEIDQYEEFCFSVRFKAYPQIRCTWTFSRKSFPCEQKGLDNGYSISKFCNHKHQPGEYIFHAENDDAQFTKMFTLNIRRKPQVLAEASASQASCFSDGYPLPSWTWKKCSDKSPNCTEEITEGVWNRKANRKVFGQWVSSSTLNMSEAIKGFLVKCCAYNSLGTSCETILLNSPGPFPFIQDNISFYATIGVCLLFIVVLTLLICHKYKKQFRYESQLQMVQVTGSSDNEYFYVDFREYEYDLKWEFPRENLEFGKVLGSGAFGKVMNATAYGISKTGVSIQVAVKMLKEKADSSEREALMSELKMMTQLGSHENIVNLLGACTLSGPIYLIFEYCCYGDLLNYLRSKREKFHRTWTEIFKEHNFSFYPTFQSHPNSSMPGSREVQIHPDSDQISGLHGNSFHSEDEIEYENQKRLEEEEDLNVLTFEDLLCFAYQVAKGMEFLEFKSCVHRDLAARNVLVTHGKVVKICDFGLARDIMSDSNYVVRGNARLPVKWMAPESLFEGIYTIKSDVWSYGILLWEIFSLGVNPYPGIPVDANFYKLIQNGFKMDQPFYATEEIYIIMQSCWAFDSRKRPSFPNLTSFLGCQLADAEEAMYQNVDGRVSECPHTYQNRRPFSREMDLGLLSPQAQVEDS

[1] = DDR2 IC50, two separate experiments

IC50 (DDR2; [1]) [nM] | Compound | also measured
2.6 ± 0.1 | Cc1ccc(C(=O)Nc2cccc(C(F)(F)F)c2)cc1-c1ccc2ncncc2c1 [Compound 13, 4-Methyl-3-(quinazolin-6-yl)-N-(3-(trifluoromethyl)phenyl)benzamide] | –
10.5 ± 1 | Cc1ccc(C(=O)Nc2cccc(C(F)(F)F)c2)cc1-c1ccc2nc(NC3CCN(C)CC3)ncc2c1 [Compound 17, 4-Methyl-3-(2-((1-methylpiperidin-4-yl)amino)quinazolin-6-yl)-N-(3-(trifluoromethyl)phenyl)benzamide] | –
– | N-(3-((3,5-Dimethylpiperazin-1-yl)methyl)-5-(trifluoromethyl)phenyl)-4-methyl-3-(2-((1-methyl-1H-pyrazol-4-yl)amino)quinazolin-6-yl)benzamide [Compound 29] | IC50 (DDR2; read-out: DDR2 IC50, two separate experiments): 2.7 ± 0.2 nM; RET inhibition @10 nmol/L (RET; 10 nmol/L): 91.6%; Flt-3 inhibition @10 nmol/L (Flt-3; 10 nmol/L): 93.8%
2.3 ± 0.5 | COc1ccc(C(=O)Nc2cccc(C(F)(F)F)c2)cc1-c1ccc2nc(Nc3cnn(C)c3)ncc2c1 [Compound 33, 4-Methoxy-3-(2-((1-methyl-1H-pyrazol-4-yl)amino)quinazolin-6-yl)-N-(3-(trifluoromethyl)phenyl)benzamide] | inhibition at 0.1 µM (RET): 41.3%; inhibition at 0.1 µM (Flt-3): 59.7%
6.3 ± 0.5 | Cc1ccc(C(=O)Nc2cccc(C(F)(F)F)c2)cc1-c1ccc2nc(Nc3cccc(N4CCN(C)CC4)c3)ncc2c1 [Compound 21, 4-Methyl-3-(2-((3-(4-methylpiperazin-1-yl)phenyl)amino)quinazolin-6-yl)-N-(3-(trifluoromethyl)phenyl)benzamide] | –
9.9 ± 1 | Cc1ccc(C(=O)Nc2cccc(C(F)(F)F)c2)cc1-c1ccc2nc(NC3CC3)ncc2c1 [Compound 16, 3-(2-(Cyclopropylamino)quinazolin-6-yl)-4-methyl-N-(3-(trifluoromethyl)phenyl)benzamide] | –
1.7 ± 0.3 | Cc1ccc(C(=O)Nc2cc(CN3CCN(C)CC3)cc(C(F)(F)F)c2)cc1-c1ccc2nc(Nc3cnn(C)c3)ncc2c1 [Compound 25, 4-Methyl-3-(2-((1-methyl-1H-pyrazol-4-yl)amino)quinazolin-6-yl)-N-(3-((4-methylpiperazin-1-yl)methyl)-5-(trifluoromethyl)phenyl)benzamide] | inhibition at 0.01 µM (RET): 93.9%; inhibition at 0.01 µM (Flt-3): 93.5%
5.7 ± 0.3 | Cc1ccc(C(=O)Nc2cccc(C(F)(F)F)c2)cc1-c1ccc2nc(Nc3ccc(N4CCN(C)CC4)cc3)ncc2c1 [Compound 20, 4-Methyl-3-(2-((4-(4-methylpiperazin-1-yl)phenyl)amino)quinazolin-6-yl)-N-(3-(trifluoromethyl)phenyl)benzamide] | –
3.8 ± 0.2 | Cc1ccc(C(=O)Nc2cccc(C(F)(F)F)c2)cc1-c1ccc2ncnc(N)c2c1 [Compound 14, 3-(4-Aminoquinazolin-6-yl)-4-methyl-N-(3-(trifluoromethyl)phenyl)benzamide] | –
4.9 ± 1.1 | Cc1ccc(C(=O)Nc2cccc(C(F)(F)F)c2)cc1-c1ccc2c(c1)NC(=O)C2 [Compound 9, 4-Methyl-3-(2-oxoindolin-6-yl)-N-(3-(trifluoromethyl)phenyl)benzamide] | –
1.9 ± 0.4 | Cc1ccc(C(=O)Nc2cccc(C(F)(F)F)c2)cc1-c1ccc2nc(N)ncc2c1 [Compound 15, 3-(2-Aminoquinazolin-6-yl)-4-methyl-N-(3-(trifluoromethyl)phenyl)benzamide] | –
1.8 ± 0.1 | CC(=O)N1CCN(Cc2cc(NC(=O)c3ccc(C)c(-c4ccc5nc(Nc6cnn(C)c6)ncc5c4)c3)cc(C(F)(F)F)c2)CC1 [Compound 28, N-(3-((4-Acetylpiperazin-1-yl)methyl)-5-(trifluoromethyl)phenyl)-4-methyl-3-(2-((1-methyl-1H-pyrazol-4-yl)amino)quinazolin-6-yl)benzamide] | inhibition at 0.01 µM (RET): 91.8%; inhibition at 0.01 µM (Flt-3): 92.4%
– | CC(C)c1ccc(C(=O)Nc2cccc(C(F)(F)F)c2)cc1-c1ccc2nc(Nc3cnn(C)c3)ncc2c1 [Compound 34, 4-Isopropyl-3-(2-((1-methyl-1H-pyrazol-4-yl)amino)quinazolin-6-yl)-N-(3-(trifluoromethyl)phenyl)benzamide] | inhibition at 0.1 µM (RET): 54.5%; inhibition at 0.1 µM (Flt-3): 56.8%
3.4 ± 0.7 | Cc1ccc(C(=O)Nc2cccc(C(F)(F)F)c2)cc1-c1ccc2nc(NCCN3CCOCC3)ncc2c1 [Compound 18, 4-Methyl-3-(2-((2-morpholinoethyl)amino)quinazolin-6-yl)-N-(3-(trifluoromethyl)phenyl)benzamide] | –
6.5 ± 1.5 | Cc1ccc(C(=O)Nc2cccc(C(F)(F)F)c2)cc1-c1ccc2nc(Nc3cnn(C)c3)nc(N)c2c1 [Compound 23, 3-(4-Amino-2-((1-methyl-1H-pyrazol-4-yl)amino)quinazolin-6-yl)-4-methyl-N-(3-(trifluoromethyl)phenyl)benzamide] | –
20.9 ± 5.2 | Cc1ccc(C(=O)Nc2cccc(C(F)(F)F)c2)cc1-c1ccc2c(c1)COCC2 [Compound 10, 3-(Isochroman-7-yl)-4-methyl-N-(3-(trifluoromethyl)phenyl)benzamide] | –
3.1 ± 1 | Cc1ccc(C(=O)Nc2cc(CN3CCN(C4CCCC4)CC3)cc(C(F)(F)F)c2)cc1-c1ccc2nc(Nc3cnn(C)c3)ncc2c1 [Compound 27, N-(3-((4-Cyclopentylpiperazin-1-yl)methyl)-5-(trifluoromethyl)phenyl)-4-methyl-3-(2-((1-methyl-1H-pyrazol-4-yl)amino)quinazolin-6-yl)benzamide] | inhibition at 0.01 µM (RET): 92.8%; inhibition at 0.01 µM (Flt-3): 94.4%
42.4 ± 2.3 | Cc1ccc(C(=O)Nc2cccc(C(F)(F)F)c2)cc1-c1ccc2nc(N3CCN(C)CC3)ncc2c1 [Compound 19, 4-Methyl-3-(2-(4-methylpiperazin-1-yl)quinazolin-6-yl)-N-(3-(trifluoromethyl)phenyl)benzamide] | –
– | Cn1cc(Nc2ncc3cc(-c4cc(C(=O)Nc5cccc(C(F)(F)F)c5)ccc4C4CC4)ccc3n2)cn1 [Compound 35, 4-Cyclopropyl-3-(2-((1-methyl-1H-pyrazol-4-yl)amino)quinazolin-6-yl)-N-(3-(trifluoromethyl)phenyl)benzamide] | inhibition at 0.1 µM (RET): 50.7%; inhibition at 0.1 µM (Flt-3): 37.1%
2.2 ± 0.3 | Cc1ccc(C(=O)Nc2cc(CN3CCN(C(C)C)CC3)cc(C(F)(F)F)c2)cc1-c1ccc2nc(Nc3cnn(C)c3)ncc2c1 [Compound 26, N-(3-((4-Isopropylpiperazin-1-yl)methyl)-5-(trifluoromethyl)phenyl)-4-methyl-3-(2-((1-methyl-1H-pyrazol-4-yl)amino)quinazolin-6-yl)benzamide] | inhibition at 0.01 µM (RET): 92.7%; inhibition at 0.01 µM (Flt-3): 90.1%
4.1 ± 0.7 | CCc1ccc(C(=O)Nc2cccc(C(F)(F)F)c2)cc1-c1ccc2nc(Nc3cnn(C)c3)ncc2c1 [Compound 32, 4-Ethyl-3-(2-((1-methyl-1H-pyrazol-4-yl)amino)quinazolin-6-yl)-N-(3-(trifluoromethyl)phenyl)benzamide] | inhibition at 0.1 µM (RET): 77.1%; inhibition at 0.1 µM (Flt-3): 61.8%
1.6 ± 0.1 | Cc1ccc(C(=O)Nc2cccc(C(F)(F)F)c2)cc1-c1ccc2ccncc2c1 [Compound 11, 3-(Isoquinolin-7-yl)-4-methyl-N-(3-(trifluoromethyl)phenyl)benzamide] | –
36.5 ± 1 | Cc1ccc(C(=O)Nc2cccc(C(F)(F)F)c2)cc1-c1ccc2cnccc2c1 [Compound 12, 3-(Isoquinolin-6-yl)-4-methyl-N-(3-(trifluoromethyl)phenyl)benzamide] | –
